Paper PMC7587356, “High-Throughput Screening for Inhibitors of the SARS-CoV-2 Protease Using a FRET-Biosensor” (Molecules, 2020)
Where a name gives a salt, the structure may show the parent alone. Read-outs that look alike come from different tables or passages of the source.

Target: SARS-CoV-2 3CLpro (Severe acute respiratory syndrome coronavirus 2, UniProt P0DTD1)
Assay: biochemical
Type: biochemical
Parameters: Replicate_1 / Replicate_2 / mean / mean (LOPAC_screen_w_protease): unit not given here
Settings: for inhibition at 5 µM: 4 h
[1] = sheet LOPAC_screen_w_protease, primary screen of LOPAC1280 at 5 µM with protease, mean of the two replicates
[2] = sheet LOPAC_screen_w_protease, primary screen of LOPAC1280 at 5 µM with protease, replicate 1
[3] = sheet LOPAC_screen_w_protease, primary screen of LOPAC1280 at 5 µM with protease, replicate 2
[4] = LOPAC1280 primary screen with protease, 5 µM compound, mean of two replicates
[5] = LOPAC1280 primary screen with protease, 5 µM compound, replicate 1
[6] = LOPAC1280 primary screen with protease, 5 µM compound, replicate 2
[7] = sheet LOPAC_screen_w_protease, primary screen with protease, compound at 5 µM, mean of two replicates
[8] = sheet LOPAC_screen_w_protease, primary screen with protease, compound at 5 µM, replicate 1
[9] = sheet LOPAC_screen_w_protease, primary screen with protease, compound at 5 µM, replicate 2
[10] = sheet LOPAC_screen_w_protease, LOPAC1280 primary screen with protease, 5 µM compound, mean of the two replicates
[11] = sheet LOPAC_screen_w_protease, LOPAC1280 primary screen with protease, 5 µM compound, replicate 1
[12] = sheet LOPAC_screen_w_protease, LOPAC1280 primary screen with protease, 5 µM compound, replicate 2
[13] = sheet LOPAC_screen_w_protease, LOPAC1280 at 5 µM, mean of two replicates
[14] = sheet LOPAC_screen_w_protease, LOPAC1280 at 5 µM, replicate 1
[15] = sheet LOPAC_screen_w_protease, LOPAC1280 at 5 µM, replicate 2
[16] = LOPAC1280 primary screen with protease, 5 µM compound, mean of the two replicates
[17] = sheet LOPAC_screen_w_protease, primary screen with protease, mean of two replicates
[18] = sheet LOPAC_screen_w_protease, primary screen with protease, replicate 1
[19] = sheet LOPAC_screen_w_protease, primary screen with protease, replicate 2
[20] = sheet LOPAC_screen_w_protease, primary screen with protease, 5 µM, mean of two replicates, read-out: mean
[21] = sheet LOPAC_screen_w_protease, primary screen with protease, 5 µM, replicate 1, read-out: Replicate_1
[22] = sheet LOPAC_screen_w_protease, primary screen with protease, 5 µM, replicate 2, read-out: Replicate_2
[23] = LOPAC1280 primary screen with protease, 5 µM compound, replicate 1, read-out: Replicate_1 (LOPAC_screen_w_protease)
[24] = LOPAC1280 primary screen with protease, 5 µM compound, replicate 2, read-out: Replicate_2 (LOPAC_screen_w_protease)
[25] = sheet LOPAC_screen_w_protease, primary screen of LOPAC1280 at 5 µM with protease, mean of the two replicates, read-out: mean
[26] = sheet LOPAC_screen_w_protease, primary screen of LOPAC1280 at 5 µM with protease, replicate 1, read-out: Replicate_1
[27] = sheet LOPAC_screen_w_protease, primary screen of LOPAC1280 at 5 µM with protease, replicate 2, read-out: Replicate_2
[28] = sheet LOPAC_screen_w_protease, primary screen at 5 µM, mean of two replicates
[29] = sheet LOPAC_screen_w_protease, primary screen at 5 µM, replicate 1
[30] = sheet LOPAC_screen_w_protease, primary screen at 5 µM, replicate 2
[31] = sheet LOPAC_screen_w_protease, LOPAC1280 primary screen at 5 µM, with protease, mean of the two replicates, read-out: mean
[32] = sheet LOPAC_screen_w_protease, LOPAC1280 primary screen at 5 µM, with protease, replicate 1, read-out: Replicate_1
[33] = sheet LOPAC_screen_w_protease, LOPAC1280 primary screen at 5 µM, with protease, replicate 2, read-out: Replicate_2

## C/C=C1\C(=O)C[C@H]2[C@@H]3CCC4=CC(=O)CC[C@]4(C)[C@H]3CC[C@]12C [(Z)-Gugglesterone]
[1]
  mean: 3.352
[2]
  Replicate_1: 5.164
[3]
  Replicate_2: 1.54

## CCCN(CCC)[C@@H]1CCc2c(F)ccc(O)c2C1.Cl [R(+)-UH-301 hydrochloride]
[4]
  mean (LOPAC_screen_w_protease): 1.335
[5]
  Replicate_1 (LOPAC_screen_w_protease): 1.567
[6]
  Replicate_2 (LOPAC_screen_w_protease): 1.103

## Cc1cccc(C#Cc2ccccc2)n1.Cl
[7]
  mean: 3.1043
[8]
  Replicate_1: 2.241
[9]
  Replicate_2: 3.968

## O=C1Nc2ccc(I)cc2/C1=C/c1cc(Br)c(O)c(Br)c1 [GW5074]
[10]
  mean: 5.786
[11]
  Replicate_1: 6.4599
[12]
  Replicate_2: 5.112

## O=C(O)/C=C\C(=O)O.O=C(O)/C=C\C(=O)O.c1cc(CN2CCCCC2)cc(OCCCNc2nc3ccccc3s2)c1 [SKF 95282 dimaleate]
[13]
  mean: 0.9471
[14]
  Replicate_1: 0.9833
[15]
  Replicate_2: 0.911

## Cc1ccc(OCC(O)C(C)NC(C)C)c2c1CCC2.Cl (stereo not drawn) [ICI 118,551 hydrochloride]
[16]
  mean (LOPAC_screen_w_protease): 1.851
[5]
  Replicate_1 (LOPAC_screen_w_protease): 3.391
[6]
  Replicate_2 (LOPAC_screen_w_protease): 0.3114

## C[N+](C)(C)CC#CCN1CCCC1=O [Oxotremorine methiodide]
Sheet LOPAC_screen_w_protease, primary screen at 5 µM, mean of two replicates, read-out: mean (LOPAC screen with protease)
  inhibition at 5 µM: 7.27%
Sheet LOPAC_screen_w_protease, primary screen at 5 µM, replicate 1, read-out: Replicate_1 (LOPAC screen with protease)
  inhibition at 5 µM: 7.16%
Sheet LOPAC_screen_w_protease, primary screen at 5 µM, replicate 2, read-out: Replicate_2 (LOPAC screen with protease)
  inhibition at 5 µM: 7.38%

## OC[C@H]1O[C@@H](n2cnc3c(NC4CCCCC4)ncnc32)[C@H](O)[C@@H]1O [N6-Cyclohexyladenosine]
[4]
  mean (LOPAC_screen_w_protease): 1.471
[5]
  Replicate_1 (LOPAC_screen_w_protease): 2.337
[6]
  Replicate_2 (LOPAC_screen_w_protease): 0.606

## Cc1ccccc1N1CCN(S(=O)(=O)CC23CCC(CC2NC(=O)C(N)CCS(C)(=O)=O)C3(C)C)CC1.Cl [L-368,899]
[17]
  mean: 2.3895
[18]
  Replicate_1: 2.509
[19]
  Replicate_2: 2.27

## CCn1cc(C(=O)[O-])c(=O)c2ccc(C)nc21.[Na+] [Nalidixic acid sodium]
[10]
  mean: 4.611
[11]
  Replicate_1: 4.1091
[12]
  Replicate_2: 5.113

## Cl.O=C(O)C1=CCCN(CCON=C(c2ccccc2)c2ccccc2)C1 [NO-711 hydrochloride]
  Replicate_1: 1.057
  Replicate_2: -0.5134
  mean: 0.272

## CCCCNc1c(C(=O)OCC)c(C)nc2c1cnn2CC [Tracazolate]
[20]
  inhibition at 5 µM: -0.116%
[21]
  inhibition at 5 µM: 0.109%
[22]
  inhibition at 5 µM: -0.341%

## N#C/C(=C\c1ccc(O)c(O)c1)C(=O)NCCCc1ccccc1 [Tyrphostin AG 555]
[1]
  mean: 3.848
[2]
  Replicate_1: 4.708
[3]
  Replicate_2: 2.988

## CC1=C(C(=O)O)N2C(=O)[C@@H](NC(=O)[C@H](N)C3=CCC=CC3)[C@H]2SC1 [Cephradine]
Sheet LOPAC_screen_w_protease, primary screen with protease, compound at 5 µM, mean of two replicates, read-out: mean
  inhibition at 5 µM: 3.13%
Sheet LOPAC_screen_w_protease, primary screen with protease, compound at 5 µM, replicate 1, read-out: Replicate_1
  inhibition at 5 µM: 2.84%
Sheet LOPAC_screen_w_protease, primary screen with protease, compound at 5 µM, replicate 2, read-out: Replicate_2
  inhibition at 5 µM: 3.42%

## CCn1nc(C(=O)O)c(=O)c2cc3c(cc21)OCO3 [Cinoxacin]
[23]
  inhibition at 5 µM: -0.0118%
[24]
  inhibition at 5 µM: 4.09%
[16]
  mean (LOPAC_screen_w_protease): 2.037

## CCN1CCc2nc(N)oc2CC1.Cl.Cl [B-HT 933 dihydrochloride]
[7]
  mean: 2.82
[8]
  Replicate_1: 2.163
[9]
  Replicate_2: 3.476

## N=C(N)NC(=O)c1nc(Cl)c(N)nc1N [Amiloride hydrochloride]
[20]
  inhibition at 5 µM: 0.179%
[21]
  inhibition at 5 µM: -0.488%
[22]
  inhibition at 5 µM: 0.846%

## COc1ccc(Cc2nccc3cc(OC)c(OC)cc23)cc1OC [Papaverine hydrochloride]
Sheet LOPAC_screen_w_protease, LOPAC1280 primary screen with protease, 5 µM compound, mean of the two replicates, read-out: mean
  inhibition at 5 µM: 5.63%
Sheet LOPAC_screen_w_protease, LOPAC1280 primary screen with protease, 5 µM compound, replicate 1, read-out: Replicate_1
  inhibition at 5 µM: 5.9%
Sheet LOPAC_screen_w_protease, LOPAC1280 primary screen with protease, 5 µM compound, replicate 2, read-out: Replicate_2
  inhibition at 5 µM: 5.37%

## C[N+](C)(C)CCCCCC[N+](C)(C)C [Hexamethonium bromide]
[20]
  inhibition at 5 µM: 0.248%
[21]
  inhibition at 5 µM: 1.66%
[22]
  inhibition at 5 µM: -1.17%

## C[C@]12CC[C@@H](O)C[C@@H]1CC[C@@H]1[C@@H]2CC[C@]2(C)[C@@H](O)CC[C@@H]12 [5alpha-Androstane-3alpha,17beta-diol]
[4]
  mean (LOPAC_screen_w_protease): 1.678
[5]
  Replicate_1 (LOPAC_screen_w_protease): 0.2579
[6]
  Replicate_2 (LOPAC_screen_w_protease): 3.098

## COc1ccccc1N1CCN(CCN(C(=O)c2ccc(I)cc2)c2ccccn2)CC1.Cl [p-MPPI hydrochloride]
[7]
  mean: 3.1199
[8]
  Replicate_1: 5.19
[9]
  Replicate_2: 1.05

## N[C@H](CCC(=O)NCS(=O)(=O)O)C(=O)O [gamma-D-Glutamylaminomethylsulfonic acid]
[13]
  mean: 1.223
[14]
  Replicate_1: 4.708
[15]
  Replicate_2: -2.2619

## CN[C@H](CC(=O)O)C(=O)O [N-Methyl-D-aspartic acid]
[25]
  inhibition at 5 µM: 3.42%
[26]
  inhibition at 5 µM: 4.04%
[27]
  inhibition at 5 µM: 2.81%

## Br.Br.NC(N)=NCCSSCCN=C(N)N [Guanidinoethyl disulfide dihydrobromide]
[28]
  mean (LOPAC screen with protease): 36.2152
[29]
  Replicate_1 (LOPAC screen with protease): 35.2116
[30]
  Replicate_2 (LOPAC screen with protease): 37.2188

## Nc1c(S(=O)(=O)O)cc(Nc2ccc(Nc3nc(Cl)nc(Nc4cccc(S(=O)(=O)O)c4)n3)c(S(=O)(=O)O)c2)c2c1C(=O)c1ccccc1C2=O [Reactive Blue 2]
[31]
  inhibition at 5 µM: 0.827%
[32]
  inhibition at 5 µM: -0.139%
[33]
  inhibition at 5 µM: 1.79%

## CC[N+](C)(C)c1cccc(O)c1 [Edrophonium chloride]
Sheet LOPAC_screen_w_protease, primary screen with protease, mean of two replicates, read-out: mean
  inhibition at 5 µM: 2.25%
Sheet LOPAC_screen_w_protease, primary screen with protease, replicate 1, read-out: Replicate_1
  inhibition at 5 µM: 5.19%
Sheet LOPAC_screen_w_protease, primary screen with protease, replicate 2, read-out: Replicate_2
  inhibition at 5 µM: -0.704%

## CN(C)CCC=C1c2ccccc2COc2ccccc21 [Doxepin hydrochloride]
[23]
  inhibition at 5 µM: 1.2%
[24]
  inhibition at 5 µM: 1.88%
[4]
  mean (LOPAC_screen_w_protease): 1.543

## COc1cc(C(=O)OCCCN2CCCN(CCCOC(=O)c3cc(OC)c(OC)c(OC)c3)CC2)cc(OC)c1OC [Dilazep hydrochloride]
[25]
  inhibition at 5 µM: 3.29%
[26]
  inhibition at 5 µM: 2.23%
[27]
  inhibition at 5 µM: 4.35%

## NS(=O)(=O)c1cccc2c1c([N+](=O)[O-])cc1nc([O-])c([O-])nc12.[Na+].[Na+] [NBQX disodium]
[28]
  mean (LOPAC screen with protease): 8.586
[29]
  Replicate_1 (LOPAC screen with protease): 5.7201
[30]
  Replicate_2 (LOPAC screen with protease): 11.4514

## N#C/C(=C\c1ccc(O)c(O)c1)C(=O)c1ccc(O)c(O)c1 [Tyrphostin AG 538]
[4]
  mean (LOPAC_screen_w_protease): 1.741
[5]
  Replicate_1 (LOPAC_screen_w_protease): 1.926
[6]
  Replicate_2 (LOPAC_screen_w_protease): 1.555

## C/C=C(/C)C(=O)O[C@H]1C(C)=C2[C@H]([C@@H]1OC(=O)CCCCCCC)[C@@](C)(OC(C)=O)C[C@H](OC(=O)CCC)[C@@]1(O)[C@H]2OC(=O)[C@@]1(C)O [Thapsigargin]
[31]
  inhibition at 5 µM: 0.567%
[32]
  inhibition at 5 µM: 2.46%
[33]
  inhibition at 5 µM: -1.32%

## O=[N+]([O-])c1cc(O)c(O)c([N+](=O)[O-])c1 [3,5-Dinitrocatechol]
[17]
  mean: 2.373
[18]
  Replicate_1: 3.489
[19]
  Replicate_2: 1.257

## CC(C)(Sc1ccc(CCN(CCCCC2CCCCC2)C(=O)NC2CCCCC2)cc1)C(=O)O [GW7647]
Sheet LOPAC_screen_w_protease, primary screen with protease, 5 µM, mean of two replicates
  mean: -0.2447
Sheet LOPAC_screen_w_protease, primary screen with protease, 5 µM, replicate 1
  Replicate_1: -0.1471
Sheet LOPAC_screen_w_protease, primary screen with protease, 5 µM, replicate 2
  Replicate_2: -0.3423
